Assay results from PMC4105567, “Aurora Kinases as Druggable Targets in Pediatric Leukemia: Heterogeneity in Target Modulation Activities and Cytotoxicity by Diverse Novel Therapeutic Agents” (PLoS ONE, 2014).
Like-named read-outs stand apart in the source and are kept apart here.

Assays:
Bone Marrow Stroma = experiment: Cytotoxicity assay, bone marrow stroma; assay type: cell-based, human; details: Homo sapiens, 96 h; bone marrow stroma (control for non-leukemia cytotoxicity); four days in culture; ± SD, three experiments
Experimental: (§1) For cytotoxicity profiling of Aurora kinase inhibitors against leukemia cell lines, inhibitors or vehicle control (DMSO, Sigma-Aldrich) were diluted in 100 µl of Opti-MEM per well in 96 well plates (Grenier Bio-One, Monroe, North Carolina) in triplicate at final concentrations ranging from 1×10^−6 to 10 µM. 1×10^4 cells per well were seeded and plates were incubated for 4 days. Following incubation for 4 days, cell survival was quantified by Alamar blue assay (Invitrogen) or automated inverted microscopy using the Celigo Cell Cytometer (Cyntellect, San Diego, California). […] During this period of incubation, the absorbance at 570–620 nm was measured (Opsys MR Plate Reader, Dynex Technologies, Chantilly, Virginia) at various time points, depending on the cell line or sample. Percent survival was calculated by comparing the absorbance ratio of the test well to the control well multiplied by 100%, as indicated in the following formula: […]
(§2) For automated inverted microscopy, the number of cells in each well was determined using the direct cell counting application as described previously. Briefly, following adjustment of image acquisition settings for bright-field imaging, the wells containing cells and appropriate dilutions of inhibitors were individually scanned. Based on these images, analysis parameters, including intensity threshold and cell diameter, were modified for optimal inclusion of viable cells in treated and control wells. These parameters were applied for subsequent replicates involving the same leukemia cell line or sample. The percent survival was then calculated as a ratio of the number of cells in treated wells to the number of cells in control wells multiplied by 100%. Given that Aurora kinase inhibitors interfere with cytokinesis, cells that are committed to death may still contain enlarging but intact cytoplasmic content before the eventual loss of cytoplasmic membrane integrity. The accuracy of Alamar blue assay may be, in theory, affected by the timing of these events.

C1 B-ALL cell line = experiment: Cytotoxicity assay, C1; assay type: cell-based, human; details: Homo sapiens, 96 h, four days in culture, Alamar blue assay or automated microscopy, ± SD, three experiments
Experimental: (§3) Cell lines were cultured in Opti-MEM medium (Gibco, Life Technologies Corporation, Burlington, Ontario) supplemented with 10% heat inactivated fetal bovine serum (FBS) (Gibco), 100 units/ml penicillin and 100 units/ml streptomycin (Gibco) and 0.05 mM 2-mercaptoethanol (Sigma-Aldrich, Oakville, Ontario) in T25 flasks (Nalge Nunc, Rochester, New York) or T75 flasks (Corning Incorporated, Corning, New York). All cell cultures were maintained at 37°C in a humidified incubator with 5% CO2.
as §1, §2

HL-60 RA APML cell line = experiment: Cytotoxicity assay, HL-60 RA; assay type: cell-based, human; details: Homo sapiens, 96 h; APML cell line HL-60 RA; four days in culture; Alamar blue assay or automated microscopy; ± SD, three experiments
Experimental: as §3, §1, §2

SEM B-ALL cell line = experiment: Cytotoxicity assay, SEM; assay type: cell-based; details: Homo sapiens, 96 h, four days in culture, Alamar blue assay or automated microscopy, ± SD, three experiments
Experimental: as §3, §1, §2

Normal Lymphocytes = experiment: Cytotoxicity assay, normal lymphocytes; assay type: cell-based, human; details: Homo sapiens, Lymphocyte, 96 h; normal lymphocytes (control for non-leukemia cytotoxicity); four days in culture; ± SD, three experiments
Experimental: (§4) These include B-ALL (Patient #1), relapsed AML (Patient #2), AML/CML (Patient #3), infant ALL (Patient #4), and initial ALL presenting with secondary AML (Patient #5). […] The diluted sample was then layered on a Ficoll-Paque (GE Healthcare, Piscataway, New Jersey) gradient at a 1∶2 ratio of Ficoll to diluted sample. Samples were then centrifuged 1800 rpm for 20 minutes at room temperature. The buffy coat was removed with a pipette and transferred to a new centrifuge tube and diluted with PBS. After an additional centrifugation at 1200 rpm, the white blood cell pellet was washed with PBS and centrifuged one last time. Cells were re-suspended in Opti-MEM and viable cells were counted using trypan blue (Invitrogen, Life Technologies Corporation, Burlington, Ontario) exclusion on a haemocytometer. An identical protocol was followed for the isolation of white blood cells, referred to as “normal lymphocytes” in the following paragraphs, from healthy volunteers. Samples grown in culture for up to six months were cultured in Opti-MEM medium supplemented with 10% heat inactivated FBS, penicillin/streptomycin and 2-mercaptoethanol.
as §1, §2

Nalm6 B-ALL cell line = experiment: Cytotoxicity assay, Nalm6; assay type: cell-based, human; details: Homo sapiens, NALM-6, 96 h, four days in culture, Alamar blue assay or automated microscopy, ± SD, three experiments
Experimental: as §3, §1, §2

HL-60 APML cell line = experiment: Cytotoxicity assay, HL-60; assay type: cell-based, human; details: Homo sapiens, 96 h; APML cell line HL-60; four days in culture; Alamar blue assay or automated microscopy; ± SD, three experiments
Experimental: as §3, §1, §2

Aurora-C = details: read-out: Targets (IC50 Value): Aurora-C; literature values; ref [10],[40],[44]–[64] as listed per inhibitor in Table 1; cited from earlier work
[1] = test system: Patient #2 relapsed AML primary leukemia cells; experiment: Cytotoxicity assay, primary sample Patient #2; assay type: cell-based, human; details: Homo sapiens, 96 h, four days in culture, Alamar blue assay or automated microscopy, one complete study
Experimental: as §4, §1, §2

UOCB1 B-ALL cell line = experiment: Cytotoxicity assay, UOCB1; assay type: cell-based, human; details: Homo sapiens, UoC-B1, 96 h, four days in culture, Alamar blue assay or automated microscopy, ± SD, three experiments
Experimental: as §3, §1, §2

Molt-3 T-ALL cell line = experiment: Cytotoxicity assay, Molt-3; assay type: cell-based, human; details: Homo sapiens, 96 h; T-ALL cell line Molt-3; four days in culture; Alamar blue assay or automated microscopy; ± SD, three experiments
Experimental: as §3, §1, §2

[2] = test system: Patient #4 infant leukemia primary cells; experiment: Cytotoxicity assay, primary sample Patient #4; assay type: cell-based, human; details: Homo sapiens, 96 h, four days in culture, Alamar blue assay or automated microscopy, one complete study
Experimental: as §4, §1, §2

[3] = test system: Patient #5 ALL/AML primary leukemia cells; experiment: Cytotoxicity assay, primary sample Patient #5; assay type: cell-based, human; details: Homo sapiens, 96 h, read-out: IC50, Patient #5 ALL/AML
Experimental: as §4, §1, §2

NB4 APML cell line = experiment: Cytotoxicity assay, NB4; assay type: cell-based, human; details: Homo sapiens, 96 h, four days in culture, Alamar blue assay or automated microscopy, ± SD, three experiments
Experimental: as §3, §1, §2

[4] = test system: Patient #3 AML/CML primary leukemia cells; experiment: Cytotoxicity assay, primary sample Patient #3; assay type: cell-based, human; details: Homo sapiens, 96 h, four days in culture, Alamar blue assay or automated microscopy, one complete study
Experimental: as §4, §1, §2

[5] = test system: Patient #1 B-ALL primary leukemia cells; experiment: Cytotoxicity assay, primary sample Patient #1; assay type: cell-based, human; details: Homo sapiens, 96 h, four days in culture, Alamar blue assay or automated microscopy, one complete study
Experimental: as §4, §1, §2

KOPN8 B-ALL cell line = experiment: Cytotoxicity assay, KOPN8; assay type: cell-based, human; details: Homo sapiens, KOPN-8, 96 h, four days in culture, Alamar blue assay or automated microscopy, ± SD, three experiments
Experimental: as §3, §1, §2

B1 B-ALL cell line = experiment: Cytotoxicity assay, B1; assay type: cell-based, human; details: Homo sapiens, 96 h, four days in culture, Alamar blue assay or automated microscopy, ± SD, three experiments
Experimental: as §3, §1, §2

Molm13 AML cell line = experiment: Cytotoxicity assay, Molm13; assay type: cell-based, human; details: Homo sapiens, MOLM-13, 96 h, four days in culture, Alamar blue assay or automated microscopy, ± SD, three experiments
Experimental: as §3, §1, §2

MV4-11 AML cell line = experiment: Cytotoxicity assay, MV4-11; assay type: cell-based, human; details: Homo sapiens, 96 h; AML cell line MV4-11; four days in culture; Alamar blue assay or automated microscopy; ± SD, three experiments
Experimental: as §3, §1, §2

CEM T-ALL cell line = experiment: Cytotoxicity assay, CEM; assay type: cell-based, human; details: Homo sapiens, 96 h, four days in culture, Alamar blue assay or automated microscopy, ± SD, three experiments
Experimental: as §3, §1, §2

TIB-202 AML cell line = experiment: Cytotoxicity assay, TIB-202; assay type: cell-based, human; details: Homo sapiens, 96 h; AML cell line TIB-202; four days in culture; Alamar blue assay or automated microscopy; ± SD, three experiments
Experimental: as §3, §1, §2

[6] = test system: normal cells versus leukemia cell lines; experiment: Comparison of cytotoxicity IC50 values, normal cells versus leukemia cell lines; assay type: cell-based, human; details: normal lymphocytes and bone marrow stroma versus leukemia cell lines of Table 2
Experimental: as §1, §2

[7] = primary sample, four days in culture, Alamar blue assay or automated microscopy, one complete study

SMILES | IC50 (Bone Marrow Stroma) [nM] | IC50 (C1 B-ALL cell line) [nM] | IC50 (HL-60 RA APML cell line) [nM] | IC50 (SEM B-ALL cell line) [nM] | IC50 (Normal Lymphocytes) [nM] | IC50 (Nalm6 B-ALL cell line) [nM] | IC50 (HL-60 APML cell line) [nM] | IC50 [1] [nM] | IC50 (UOCB1 B-ALL cell line) [nM] | IC50 (Molt-3 T-ALL cell line) [nM] | IC50 [2] [nM] | IC50 (NB4 APML cell line) [nM] | IC50 [4] [nM] | IC50 [5] [nM] | IC50 (KOPN8 B-ALL cell line) [nM] | IC50 (B1 B-ALL cell line) [nM] | IC50 (Molm13 AML cell line) [nM] | IC50 (MV4-11 AML cell line) [nM] | IC50 (CEM T-ALL cell line) [nM] | IC50 (TIB-202 AML cell line) [nM] | also measured
Cc1nc(N)sc1-c1ccnc(Nc2ccc(N3CCOCC3)cc2)n1 [CYC116] | 5000 ± 2000 | 200 ± 100 | 300 ± 80 | 100 ± 4 | > 10000 | 500 ± 300 | 7000 ± 3000 | 70 | 200 ± 90 | 70 ± 20 | > 10000 | 3000 ± 2000 | > 10000 | 10 | 1000 ± 600 | 1000 ± 600 | 400 ± 200 | 5 ± 4 | 70 ± 9 | 600 ± 50 | IC50 (Aurora-C): 69 nM; IC50 [3, 7]: 0.4 nM; IC50 values for the normal cells compared with IC50 values for the leukemia cell lines (potential therapeutic window) [6]: lower than the IC50 values for the normal cells, but not as pronounced
Cc1cc(Nc2cc(N3CCN(C)CC3)nc(/C=C/c3ccccc3)n2)n[nH]1 [ENMD-2076] | 3000 ± 1000 | 700 ± 200 | 700 ± 200 | 500 ± 400 | 5000 ± 3000 | 200 ± 100 | 700 ± 90 | 8 | 1000 ± 500 | 800 ± 50 | 10000 | 1000 ± 600 | 4000 | 100 | 600 ± 300 | 1000 ± 300 | 40 ± 20 | 1 ± 0.1 | 600 ± 50 | 800 ± 200 | IC50 [3, 7]: 30 nM; IC50 values for the normal cells compared with IC50 values for the leukemia cell lines (potential therapeutic window) [6]: lower than the IC50 values for the normal cells, but not as pronounced
Nc1nc(Nc2ccc(S(N)(=O)=O)cc2)nn1C(=O)c1c(F)cccc1F [JNJ-7706621] | 7000 ± 800 | 1000 ± 500 | 800 ± 100 | 700 ± 300 | 7000 ± 500 | 1000 ± 100 | 5000 ± 2000 | 700 | 200 ± 90 | 700 ± 100 | 8000 | 2000 ± 900 | > 10000 | 1000 | 400 ± 80 | 1000 ± 100 | 2000 ± 600 | 800 ± 90 | 300 ± 200 | 3000 ± 1000 | IC50 [3]: 0.5 nM; IC50 values for the normal cells compared with IC50 values for the leukemia cell lines (potential therapeutic window) [6]: lower than the IC50 values for the normal cells, but not as pronounced
